Test results reported in patent US7732429B2 (Trustees of Tufts College, priority 1994, dated 2010).
In brackets after ≈: the same amount, converted by molar mass.

Experiments:
Type in all cases: cell-based
S. aureus 4250 (Tet K) = experiment: MIC/MLC chart, analog with and without doxycycline
E. faecalis 211 (Tet M) = experiment: MIC/MLC chart, analog with and without doxycycline
S. aureus 450 = experiment: susceptibility of tetracycline susceptible strains (MIC), C5 esters; settings: S. aureus 450, susceptible strain, drug alone
E. faecalis ATCC 9790 = experiment: as above; settings: E. faecalis ATCC 9790, susceptible strain, drug alone
E. coli DI-299 (Tet A) = experiment: MIC/MLC chart, analog with and without doxycycline; design: key to growth/killing, Analog + Doxy / growth/killing, Doxy Control / growth/killing, Analog Control / growth in MIC/MLC chart: +=growth; 0=no growth (MIC); ↓=killing; ? =99.9% killing (MLC); □=no growth, but no microbiologic testing;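 note: bacterial growth inhibition and killing in broth, each agent tested alone or combined with doxycycline across two-fold serial dilutions, overnight incubation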
E. faecalis 158 (Tet L) = experiment: MIC/MLC chart, analog with and without doxycycline
E. coli ML308 = experiment: susceptibility of tetracycline susceptible strains (MIC), C5 esters; settings: E. coli ML308, susceptible strain, drug alone

C=C1c2cccc(O)c2C(=O)C2=C(O)C3(O)C(=O)C(C(N)=O)=C(O)C(N(C)C)C3C(OC(=O)CC)C12 (stereo not drawn) [Cmpd 2]
growth/killing, Analog + Doxy (S. aureus 4250 (Tet K); analog .195 + Doxy 1.56 μg/ml): +
growth/killing, Analog + Doxy (S. aureus 4250 (Tet K); analog .195 + Doxy 3.12 μg/ml): +
growth/killing, Analog + Doxy (S. aureus 4250 (Tet K); analog .195 + Doxy 6.25 μg/ml): +
growth/killing, Analog + Doxy (S. aureus 4250 (Tet K); analog .39 + Doxy 1.56 μg/ml): +
growth/killing, Analog + Doxy (S. aureus 4250 (Tet K); analog .39 + Doxy 3.12 μg/ml): +
growth/killing, Analog + Doxy (S. aureus 4250 (Tet K); analog .39 + Doxy 6.25 μg/ml): +
growth/killing, Analog + Doxy (S. aureus 4250 (Tet K); analog .78 + Doxy 1.56 μg/ml): +
growth/killing, Analog + Doxy (S. aureus 4250 (Tet K); analog .78 + Doxy 3.12 μg/ml): +
growth/killing, Analog Control (S. aureus 4250 (Tet K); analog alone 1.56 μg/ml): +
growth/killing, Analog Control (S. aureus 4250 (Tet K); analog alone .195 μg/ml): +
growth/killing, Analog Control (S. aureus 4250 (Tet K); analog alone .39 μg/ml): +
growth/killing, Analog Control (S. aureus 4250 (Tet K); analog alone .78 μg/ml): +
MIC of analog in combination (S. aureus 4250 (Tet K); with 1.55 μg/ml doxycycline (Chart 6B)): 1.56 μg/ml
MIC of analog in combination (S. aureus 4250 (Tet K); with 6.23 μg/ml doxycycline (Chart 6B)): 0.78 μg/ml
growth/killing, Analog + Doxy (E. faecalis 211 (Tet M); analog 1.56 + Doxy 1.55 μg/ml): +
growth/killing, Analog + Doxy (E. faecalis 211 (Tet M); analog 1.56 + Doxy 3.1 μg/ml): +
growth/killing, Analog + Doxy (E. faecalis 211 (Tet M); analog 1.56 + Doxy 6.2 μg/ml): +
growth/killing, Analog + Doxy (E. faecalis 211 (Tet M); analog 3.12 + Doxy 1.53 μg/ml): +
growth/killing, Analog + Doxy (E. faecalis 211 (Tet M); analog 3.12 + Doxy 3.05 μg/ml): +
growth/killing, Analog + Doxy (E. faecalis 211 (Tet M); analog 3.12 + Doxy 6.1 μg/ml): +
growth/killing, Analog + Doxy (E. faecalis 211 (Tet M); analog .195 + Doxy 1.56 μg/ml): +
growth/killing, Analog + Doxy (E. faecalis 211 (Tet M); analog .195 + Doxy 3.12 μg/ml): +
growth/killing, Analog + Doxy (E. faecalis 211 (Tet M); analog .195 + Doxy 6.25 μg/ml): +
growth/killing, Analog + Doxy (E. faecalis 211 (Tet M); analog .195 + Doxy 12.5 μg/ml): +
growth/killing, Analog + Doxy (E. faecalis 211 (Tet M); analog .39 + Doxy 1.56 μg/ml): +
growth/killing, Analog + Doxy (E. faecalis 211 (Tet M); analog .39 + Doxy 3.12 μg/ml): +
growth/killing, Analog + Doxy (E. faecalis 211 (Tet M); analog .39 + Doxy 6.25 μg/ml): +
growth/killing, Analog + Doxy (E. faecalis 211 (Tet M); analog .39 + Doxy 12.5 μg/ml): +
growth/killing, Analog + Doxy (E. faecalis 211 (Tet M); analog .78 + Doxy 1.56 μg/ml): +
growth/killing, Analog + Doxy (E. faecalis 211 (Tet M); analog .78 + Doxy 3.12 μg/ml): +
growth/killing, Analog + Doxy (E. faecalis 211 (Tet M); analog .78 + Doxy 6.23 μg/ml): +
growth/killing, Analog + Doxy (E. faecalis 211 (Tet M); analog .78 + Doxy 12.4 μg/ml): +
growth/killing, Analog Control (E. faecalis 211 (Tet M); analog alone 1.56 μg/ml): +
growth/killing, Analog Control (E. faecalis 211 (Tet M); analog alone 3.12 μg/ml): +
growth/killing, Analog Control (E. faecalis 211 (Tet M); analog alone 6.25 μg/ml): +
growth/killing, Analog Control (E. faecalis 211 (Tet M); analog alone .195 μg/ml): +
growth/killing, Analog Control (E. faecalis 211 (Tet M); analog alone .39 μg/ml): +
growth/killing, Analog Control (E. faecalis 211 (Tet M); analog alone .78 μg/ml): +
MIC (S. aureus 450): 1.3 mg/L (≈ 2.61 µM)
MIC (E. faecalis ATCC 9790): .8 mg/L (≈ 1.6 µM)
growth/killing, Analog + Doxy (E. coli DI-299 (Tet A); analog 1.56 + Doxy 1.55 μg/ml): +
growth/killing, Analog + Doxy (E. coli DI-299 (Tet A); analog 1.56 + Doxy 3.1 μg/ml): +
growth/killing, Analog + Doxy (E. coli DI-299 (Tet A); analog 1.56 + Doxy 6.2 μg/ml): +
growth/killing, Analog + Doxy (E. coli DI-299 (Tet A); analog 1.56 + Doxy 12.3 μg/ml): +
growth/killing, Analog + Doxy (E. coli DI-299 (Tet A); analog 3.12 + Doxy 1.53 μg/ml): +
growth/killing, Analog + Doxy (E. coli DI-299 (Tet A); analog 3.12 + Doxy 3.05 μg/ml): +
growth/killing, Analog + Doxy (E. coli DI-299 (Tet A); analog 3.12 + Doxy 6.1 μg/ml): +
growth/killing, Analog + Doxy (E. coli DI-299 (Tet A); analog 6.25 + Doxy 3.0 μg/ml): +
growth/killing, Analog + Doxy (E. coli DI-299 (Tet A); analog 6.25 + Doxy 5.9 μg/ml): +
growth/killing, Analog + Doxy (E. coli DI-299 (Tet A); analog 12.5 + Doxy 2.8 μg/ml): +
growth/killing, Analog + Doxy (E. coli DI-299 (Tet A); analog 12.5 + Doxy 5.5 μg/ml): +
growth/killing, Analog + Doxy (E. coli DI-299 (Tet A); analog .195 + Doxy 1.56 μg/ml): +
growth/killing, Analog + Doxy (E. coli DI-299 (Tet A); analog .195 + Doxy 3.12 μg/ml): +
growth/killing, Analog + Doxy (E. coli DI-299 (Tet A); analog .195 + Doxy 6.25 μg/ml): +
growth/killing, Analog + Doxy (E. coli DI-299 (Tet A); analog .195 + Doxy 12.5 μg/ml): +
growth/killing, Analog + Doxy (E. coli DI-299 (Tet A); analog .39 + Doxy 1.56 μg/ml): +
growth/killing, Analog + Doxy (E. coli DI-299 (Tet A); analog .39 + Doxy 3.12 μg/ml): +
growth/killing, Analog + Doxy (E. coli DI-299 (Tet A); analog .39 + Doxy 6.25 μg/ml): +
growth/killing, Analog + Doxy (E. coli DI-299 (Tet A); analog .39 + Doxy 12.5 μg/ml): +
growth/killing, Analog + Doxy (E. coli DI-299 (Tet A); analog .78 + Doxy 1.56 μg/ml): +
growth/killing, Analog + Doxy (E. coli DI-299 (Tet A); analog .78 + Doxy 3.12 μg/ml): +
growth/killing, Analog + Doxy (E. coli DI-299 (Tet A); analog .78 + Doxy 6.23 μg/ml): +
growth/killing, Analog + Doxy (E. coli DI-299 (Tet A); analog .78 + Doxy 12.4 μg/ml): +
growth/killing, Analog Control (E. coli DI-299 (Tet A); analog alone 1.56 μg/ml): +
growth/killing, Analog Control (E. coli DI-299 (Tet A); analog alone 3.12 μg/ml): +
growth/killing, Analog Control (E. coli DI-299 (Tet A); analog alone 6.25 μg/ml): +
growth/killing, Analog Control (E. coli DI-299 (Tet A); analog alone 12.5 μg/ml): +
growth/killing, Analog Control (E. coli DI-299 (Tet A); analog alone 25.0 μg/ml): +
growth/killing, Analog Control (E. coli DI-299 (Tet A); analog alone .195 μg/ml): +
growth/killing, Analog Control (E. coli DI-299 (Tet A); analog alone .39 μg/ml): +
growth/killing, Analog Control (E. coli DI-299 (Tet A); analog alone .78 μg/ml): +
growth/killing, Analog + Doxy (E. faecalis 158 (Tet L); analog .195 + Doxy 1.56 μg/ml): +
growth/killing, Analog + Doxy (E. faecalis 158 (Tet L); analog .195 + Doxy 3.12 μg/ml): +
growth/killing, Analog + Doxy (E. faecalis 158 (Tet L); analog .39 + Doxy 1.56 μg/ml): +
growth/killing, Analog Control (E. faecalis 158 (Tet L); analog alone .195 μg/ml): +
growth/killing, Analog Control (E. faecalis 158 (Tet L); analog alone .39 μg/ml): +
growth/killing, Analog Control (E. faecalis 158 (Tet L); analog alone .78 μg/ml): +
MIC (E. coli ML308): 10 mg/L (≈ 20.1 µM)
